“Also recorded” adds a separate entry of the source.
Columns and labels:
[1] = tested on: iPS MNs expressing P525L FUS; experiment: Axon dieback of iPS-derived motor neurons expressing P525L FUS; format: cell-based, human; conditions: 2 μM in culture medium, 60 days
Text: In humans, one cause of familial ALS is FUS mutation, particularly in the C terminal NLS. P525L is one such mutation, and iPSC-derived motor neurons (iPSC MNs) expressing P525L from ALS patients show defects consistent with motor neuron defects in the patient. iPSC MNs can be grown through silicone channels, positioning the soma on one side with the axons protruding through the channels to the far side. Such cultures can be maintained for long periods (>60 days). However, when expressing P525L FUS, the axons die back within this time period without exogenous cell stressors, although P525L FUS MNs have a greater propensity to form stress granules. This is similar to axon retraction leading to motor dysfunction in patients. Therefore whether lipoamide or lipoic acid was able to improve these phenotypes was tested. […] To test this the inventors analysed transport of lysosomes within the axons of iPS MNs expressing P525L FUS with or without lipoamide in comparison to iPS MNs expressing WT FUS (FIGS. 12A-12B). […]
For analysis of axon dieback transport AH-ALS1-F58 iPS MNs expressing P525L FUS or an isogenic control expressing WT FUS were grown with 2 μM compound or an equal volume of DMSO for 60 days. […] Experiments and analysis were performed blinded, and axonal dieback was scored qualitatively using phase contrast images captured every 10 to 20 days.

[2] = tested on: D. melanogaster overexpressing human wild type FUS or ALS-associated FUS mutations; experiment: Climbing assay: motor defects in D. melanogaster expressing human FUS; format: in vivo, Drosophila melanogaster; conditions: for motor defect / ability to climb: flies expressing wild-type FUS, FUS P525L or FUS R521C
Protocol: All Drosophila stocks were maintained on standard cornmeal at 25° C. in light/dark controlled incubator. The w1118, UAS-eGFP, and D42-GAL4 were obtained from Bloomington stock center. The UAS-FUS WT, UAS-FUS P525L, and UAS-FUS R521C were previously described in Anderson et al. (Hum. Mol. Genet. 27, 1366-1381, 2018).
Climbing assays were performed as previously described. Briefly, flies expressing FUS, eGFP or w1118 were grown in the presence or absence of (±)-α-Lipoic Acid (0.43 mM or 2.15 mM diluted in ethanol), (R)-(+)-α-Lipoic Acid (0.43 mM or 2.15 mM diluted in ethanol), (S)-(−)-α-Lipoic Acid (0.43 mM or 2.15 mM diluted in ethanol), (±)-α-Lipoamide (0.43 mM diluted in DMSO), or PP 242/Torkinib (10 μM or 50 μM diluted in DMSO), then anesthetised, placed into vials and allowed to acclimatise for 15 mins in new vials. For each fly genotype, the vial was knocked three times on the base on a bench and a video camera was used to record the flies climbing up the vial walls. The percentage of flies that climbed 4 cm in 30 s was recorded. Statistical analysis was carried out in GraphPad Prism 6 using either Student's T-test or one-way ANOVA with Tukey's or Dunnet's multiple comparisons test.

[3] = target: T1, G156E FUS GFP (Homo sapiens, UniProt P35637, G156E); experiment: In vitro FUS GFP solidification (aging, fibre formation, FRAP); format: biochemical; conditions: for fibre formation of G156E FUS / hardening of FUS droplets (FRAP mobile fraction): 30 μM, aging while shaking, 1 mM DTT
T1 construct: His MBP (N, cleaved yes); made in house; host or cells: baculovirus/insect cell expression system
T1 sequence (P35637 1-526 G156E): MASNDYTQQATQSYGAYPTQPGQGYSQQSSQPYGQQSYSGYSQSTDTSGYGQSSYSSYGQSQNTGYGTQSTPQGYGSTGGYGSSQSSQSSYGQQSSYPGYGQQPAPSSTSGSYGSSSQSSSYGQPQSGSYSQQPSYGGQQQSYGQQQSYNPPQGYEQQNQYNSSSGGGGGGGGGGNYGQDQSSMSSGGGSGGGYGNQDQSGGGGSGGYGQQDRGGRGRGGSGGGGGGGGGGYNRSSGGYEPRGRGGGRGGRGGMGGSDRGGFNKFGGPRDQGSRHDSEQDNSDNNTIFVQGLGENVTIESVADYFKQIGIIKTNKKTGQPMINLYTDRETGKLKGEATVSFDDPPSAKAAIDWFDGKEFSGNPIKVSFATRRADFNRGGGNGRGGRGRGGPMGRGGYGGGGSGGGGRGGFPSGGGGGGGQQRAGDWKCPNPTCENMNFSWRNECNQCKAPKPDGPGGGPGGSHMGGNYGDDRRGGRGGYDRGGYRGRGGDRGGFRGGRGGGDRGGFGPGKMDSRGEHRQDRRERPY
Protocol: Therefore, hardening and fibre formation, another kinetic phenomenon, were analysed. In vitro FUS droplets ‘age’ over time, first hardening then tending to form amyloid/prion-like fibres. This is accelerated for G156E FUS, a mutation associated with familial ALS.
For in vitro solidification assays, FUS GFP in storage buffer was diluted in water to give 10 μM FUS, 50 mM Tris·HCl pH 7.4 and 1 mM DTT in a 20 μl volume in non-binding clear bottom 384 well plates (Greiner Bio-One, 781906). […] Fibre and droplet formation were analysed by widefield epifluorescence using a DeltaVision Elite microscope (GE Healthcare Life Sciences) with a Plan ApoN 60× NA 1.4 oil immersion objective (Olympus) and an sCMOS camera (PCO). For salt sensitivity of droplet formation FUS GFP in storage buffer was diluted in the appropriate concentration of KCl pre-mixed with compound or DMSO to generate the final KCl concentration series with 30 μM compound concentration and 0.3% DMSO.
Fluorescence recovery after photobleaching (FRAP) of FUS GFP droplets and fibres was performed on a Nikon TiE inverted microscope with a Nikon Apo 100× NA 1.49 oil immersion objective using a Yokogawa CSU-X1 spinning disc head and an Andor iXon EM+ DU-897 EMCCD camera. 10×10 px regions were bleached for […] with a 6 mW 405 nm laser using an Andor FRAPPA beam delivery unit then imaged for 5 min at 5 Hz. Recovery curve half-life and mobile fraction were calculated in ImageJ.

Row | fibre formation of G156E FUS [3] | hardening of FUS droplets (FRAP mobile fraction) [3] | SMILES | axon die back [1] | motor defect / ability to climb [2] | flies able to climb 4 cm in 30 s ([2]; food supplementation, from ˜50% without) [%] | FRAP of aged G156E FUS GFP condensates ([3]; 10 μM lipoamide, dextran crowding, vs 0.1% DMSO)
1 | delayed fibre formation | delayed hardening of FUS droplets | O=C(O)CCCCC1CCSS1 (racemic) [lipoic acid, 5-(1,2-dithiolan-3-yl)pentanoic acid] | prevented such die back | recovered the motor defect in a dose-dependent manner; also recorded: dose-dependent increase in the ability | > 80 | 
2 | delayed fibre formation | delayed hardening of FUS droplets | NC(=O)CCCCC1CCSS1 (racemic) [lipoamide, 5-(1,2-dithiolan-3-yl)pentanamide] | prevented such die back | recovers defects in motor function |  | maintain large FUS GFP mobile fraction and short FRAP half-life

Reference: US12422427B2, “Compounds for treatment of diseases and methods of screening therefor” (Max-Planck-Gesellschaft zur Förderung der Wissenschaften …, priority 2018, dated 2025)
